Source: ChEMBL document CHEMBL1155312, “In vivo evaluation of diaminodiphenyls: anticonvulsant agents with minimal acute neurotoxicity” (Bioorg Med Chem Lett, 2009)

What was measured:
[1] = tested on: Rattus norvegicus; experiment: Neurotoxicity in Sprague-Dawley rat at 500 mg/kg, po by positional sense and gait and stance test; format: toxicity, organism-based; set-up: dose 500 mg/kg, route oral; conditions: in vivo
[2] = tested on: Mus musculus; experiment: Anticonvulsant activity in CF1 albino mouse assessed as inhibition of maximal electric shock-induced seizure at 30 mg/kg, ip after 0.5 hrs; format: functional; conditions: route intraperitoneal
[3] = tested on: Mus musculus; experiment: Anticonvulsant activity in CF1 albino mouse assessed as inhibition of maximal electric shock-induced seizure at 100 mg/kg, ip after 0.5 hrs; format: functional; conditions: route intraperitoneal
[4] = tested on: Mus musculus; experiment: Anticonvulsant activity in CF1 albino mouse assessed as inhibition of maximal electric shock-induced seizure at 300 mg/kg, ip after 0.5 hrs; format: functional; conditions: route intraperitoneal
[5] = tested on: Mus musculus; experiment: Anticonvulsant activity in CF1 albino mouse assessed as inhibition of maximal electric shock-induced seizure at 30 mg/kg, ip after 4 hrs; format: functional; conditions: route intraperitoneal
[6] = tested on: Mus musculus; experiment: Anticonvulsant activity in CF1 albino mouse assessed as inhibition of maximal electric shock-induced seizure at 100 mg/kg, ip after 4 hrs; format: functional; conditions: route intraperitoneal
[7] = tested on: Mus musculus; experiment: Anticonvulsant activity in CF1 albino mouse assessed as inhibition of maximal electric shock-induced seizure at 300 mg/kg, ip after 4 hrs; format: functional; conditions: route intraperitoneal
[8] = tested on: Rattus norvegicus; experiment: Anticonvulsant activity in Sprague-Dawley rat assessed as inhibition of maximal electric shock-induced seizure at 30 mg/kg, po after 0.25 hrs; format: functional
[9] = tested on: Rattus norvegicus; experiment: Anticonvulsant activity in Sprague-Dawley rat assessed as inhibition of maximal electric shock-induced seizure at 30 mg/kg, po after 0.5 hrs; format: functional
[10] = tested on: Rattus norvegicus; experiment: Anticonvulsant activity in Sprague-Dawley rat assessed as inhibition of maximal electric shock-induced seizure at 30 mg/kg, po after 1 hrs; format: functional
[11] = tested on: Rattus norvegicus; experiment: Anticonvulsant activity in Sprague-Dawley rat assessed as inhibition of maximal electric shock-induced seizure at 30 mg/kg, po after 2 hrs; format: functional
[12] = tested on: Rattus norvegicus; experiment: Anticonvulsant activity in Sprague-Dawley rat assessed as inhibition of maximal electric shock-induced seizure at 30 mg/kg, po after 4 hrs; format: functional
[13] = tested on: Rattus norvegicus; experiment: Neurotoxicity in Sprague-Dawley rat at 30 mg/kg, po by positional sense and gait and stance test; format: toxicity, organism-based; set-up: dose 30 mg/kg, route oral; conditions: in vivo
[14] = tested on: Mus musculus; experiment: Neurotoxicity in CF1 albino mouse at 100 mg/kg, ip by rotarod test; format: toxicity, organism-based; set-up: dose 100 mg/kg, route intraperitoneal; conditions: in vivo
[15] = tested on: Rattus norvegicus; experiment: Neurotoxicity in Sprague-Dawley rat at 250 mg/kg, po by positional sense and gait and stance test; format: toxicity, organism-based; set-up: dose 250 mg/kg, route oral; conditions: in vivo
[16] = tested on: Mus musculus; experiment: Anticonvulsant activity in CF1 albino mouse assessed as inhibition of minimal clonic seizure at 100 mg/kg, ip after 0.25 hrs; format: functional; conditions: route intraperitoneal
[17] = tested on: Mus musculus; experiment: Anticonvulsant activity in CF1 albino mouse assessed as inhibition of minimal clonic seizure at 100 mg/kg, ip after 0.5 hrs; format: functional; conditions: route intraperitoneal
[18] = tested on: Mus musculus; experiment: Anticonvulsant activity in CF1 albino mouse assessed as inhibition of minimal clonic seizure at 100 mg/kg, ip after 1 hrs; format: functional; conditions: route intraperitoneal
[19] = tested on: Mus musculus; experiment: Anticonvulsant activity in CF1 albino mouse assessed as inhibition of minimal clonic seizure at 100 mg/kg, ip after 2 hrs; format: functional; conditions: route intraperitoneal
[20] = tested on: Mus musculus; experiment: Anticonvulsant activity in CF1 albino mouse assessed as inhibition of minimal clonic seizure at 100 mg/kg, ip after 4 hrs; format: functional; conditions: route intraperitoneal
[21] = tested on: Mus musculus; experiment: Anticonvulsant activity in CF1 albino mouse assessed as inhibition of minimal clonic seizure at 30 mg/kg, ip after 0.25 hrs; format: functional; conditions: route intraperitoneal
[22] = tested on: Mus musculus; experiment: Anticonvulsant activity in CF1 albino mouse assessed as inhibition of minimal clonic seizure at 30 mg/kg, ip after 0.5 hrs; format: functional; conditions: route intraperitoneal
[23] = tested on: Mus musculus; experiment: Anticonvulsant activity in CF1 albino mouse assessed as inhibition of minimal clonic seizure at 30 mg/kg, ip after 1 hrs; format: functional; conditions: route intraperitoneal
[24] = tested on: Rattus norvegicus; experiment: Neurotoxicity in Sprague-Dawley rat at 500 mg/kg, po by positional sense and gait and stance test after 1 hrs; format: toxicity, organism-based; set-up: dose 500 mg/kg, route oral; conditions: in vivo
[25] = tested on: Mus musculus; experiment: Anticonvulsant activity in CF1 albino mouse assessed as inhibition of minimal clonic seizure at 80 mg/kg, ip after 0.25 hrs; format: functional; conditions: route intraperitoneal
[26] = tested on: Mus musculus; experiment: Anticonvulsant activity in CF1 albino mouse assessed as inhibition of minimal clonic seizure at 80 mg/kg, ip after 0.5 hrs; format: functional; conditions: route intraperitoneal
[27] = tested on: Mus musculus; experiment: Anticonvulsant activity in CF1 albino mouse assessed as inhibition of minimal clonic seizure at 80 mg/kg, ip after 1 hrs; format: functional; conditions: route intraperitoneal
[28] = tested on: Mus musculus; experiment: Anticonvulsant activity in CF1 albino mouse assessed as inhibition of minimal clonic seizure at 80 mg/kg, ip after 2 hrs; format: functional; conditions: route intraperitoneal
[29] = tested on: Mus musculus; experiment: Anticonvulsant activity in CF1 albino mouse assessed as inhibition of minimal clonic seizure at 80 mg/kg, ip after 4 hrs; format: functional; conditions: route intraperitoneal
[30] = tested on: Rattus norvegicus; experiment: Anticonvulsant activity against kindle motor-induced seizure in rat assessed as after discharge duration at 100 mg/kg, ip after 15 mins by hippocampal kindling screen test; format: functional, Hippocampus; conditions: route intraperitoneal
[31] = tested on: Rattus norvegicus; experiment: Anticonvulsant activity against kindle motor-induced seizure in rat assessed as after discharge duration at 100 mg/kg, ip after 45 mins by hippocampal kindling screen test; format: functional, Hippocampus; conditions: route intraperitoneal
[32] = tested on: Rattus norvegicus; experiment: Anticonvulsant activity against kindle motor-induced seizure in rat assessed as after discharge duration at 100 mg/kg, ip after 75 mins by hippocampal kindling screen test; format: functional, Hippocampus; conditions: route intraperitoneal
[33] = tested on: Rattus norvegicus; experiment: Anticonvulsant activity against kindle motor-induced seizure in rat assessed as after discharge duration at 100 mg/kg, ip after 105 mins by hippocampal kindling screen test; format: functional, Hippocampus; conditions: route intraperitoneal
[34] = tested on: Rattus norvegicus; experiment: Anticonvulsant activity against kindle motor-induced seizure in rat assessed as after discharge duration at 100 mg/kg, ip after 135 mins by hippocampal kindling screen test; format: functional, Hippocampus; conditions: route intraperitoneal
[35] = tested on: Rattus norvegicus; experiment: Anticonvulsant activity against kindle motor-induced seizure in rat assessed as after discharge duration at 100 mg/kg, ip after 165 mins by hippocampal kindling screen test; format: functional, Hippocampus; conditions: route intraperitoneal
[36] = tested on: Rattus norvegicus; experiment: Anticonvulsant activity against kindle motor-induced seizure in rat assessed as after discharge duration at 100 mg/kg, ip after 195 mins by hippocampal kindling screen test; format: functional, Hippocampus; conditions: route intraperitoneal
[37] = tested on: Rattus norvegicus; experiment: Anticonvulsant activity against kindle motor-induced seizure in rat assessed as after discharge duration at 100 mg/kg, ip after 225 mins by hippocampal kindling screen test; format: functional, Hippocampus; conditions: route intraperitoneal
[38] = tested on: Rattus norvegicus; experiment: Anticonvulsant activity against kindle motor-induced seizure in rat assessed as after discharge duration at 100 mg/kg, ip after 255 mins by hippocampal kindling screen test; format: functional, Hippocampus; conditions: route intraperitoneal
[39] = tested on: Mus musculus; experiment: Anticonvulsant activity in CF1 albino mouse assessed as inhibition of minimal clonic seizure at 30 mg/kg, ip after 2 hrs; format: functional; conditions: route intraperitoneal
[40] = tested on: Mus musculus; experiment: Neurotoxicity in CF1 albino mouse at 300 mg/kg, ip by rotarod test after 4 hrs; format: toxicity, organism-based; set-up: dose 300 mg/kg, route intraperitoneal; conditions: in vivo

| SMILES | inhibition in vivo at 30 mg/kg [2] | inhibition in vivo at 100 mg/kg [3] | inhibition in vivo at 300 mg/kg [4] | inhibition in vivo at 30 mg/kg [5] | inhibition in vivo at 100 mg/kg [6] | inhibition in vivo at 300 mg/kg [7] | inhibition in vivo at 30 mg/kg [8] | inhibition in vivo at 30 mg/kg [9] | inhibition in vivo at 30 mg/kg [10] | inhibition in vivo at 30 mg/kg [11] | inhibition in vivo at 30 mg/kg [12] | Activity [14] | inhibition in vivo at 100 mg/kg [16] | inhibition in vivo at 100 mg/kg [17] | inhibition in vivo at 100 mg/kg [18] | inhibition in vivo at 100 mg/kg [19] | inhibition in vivo at 100 mg/kg [20] | inhibition in vivo at 30 mg/kg [21] | inhibition in vivo at 30 mg/kg [22] | inhibition in vivo at 30 mg/kg [23] | further results |
| --- | --- | --- | --- | --- | --- | --- | --- | --- | --- | --- | --- | --- | --- | --- | --- | --- | --- | --- | --- | --- | --- |
| Nc1ccc(NC(=O)c2ccc(N)cc2)cc1 | 0% | 66% | 100% | 0% | 0% | 100% | 50% | 75% | 50% | 25% | 50% |  |  |  |  |  |  |  |  |  | Activity [1]: Non-toxic |
| Nc1ccc(Oc2ccc(N)cc2)cc1 | 0% | 100% | 100% | 0% | 100% | 100% | 100% | 100% | 75% | 75% | 100% |  |  |  |  |  |  |  |  |  | Activity [13]: Non-toxic |
| Nc1ccc(Nc2cccc(N)c2)cc1 | 0% | 100% | 100% | 0% | 100% | 100% | 0% | 50% | 75% | 50% | 50% | Non-toxic |  |  |  |  |  |  |  |  | Activity [15]: Non-toxic |
| Nc1ccc(C(=O)c2ccc(N)cc2)cc1 | 0% | 100% | 100% | 0% | 100% | 100% | 50% | 100% | 75% | 100% | 75% |  | 100% | 100% | 100% | 0% | 0% | 0% | 0% | 0% | Activity [24]: Non-toxic |
| Nc1ccc(Cc2ccc(N)cc2)cc1 [4,4'-METHYLENEDIANILINE] | 0% | 100% | 100% | 0% | 0% | 100% | 100% | 75% | 100% | 100% | 50% | Non-toxic |  |  |  |  |  |  |  |  |  |
| Nc1ccc(Sc2ccc(N)cc2)cc1 [4,4'-THIODIANILINE] | 0% | 66% | 100% | 0% | 100% | 100% | 100% | 100% | 100% | 100% | 100% |  | 100% | 100% | 100% | 100% | 0% | 0% | 25% | 25% | inhibition in vivo at 80 mg/kg [25]: 100%; inhibition in vivo at 80 mg/kg [26]: 100%; inhibition in vivo at 80 mg/kg [27]: 100%; inhibition in vivo at 80 mg/kg [28]: 75%; inhibition in vivo at 80 mg/kg [29]: 0%; Activity [30]: 19.14 s; Activity [31]: 25.29 s; Activity [32]: 24.86 s; Activity [33]: 33.29 s; Activity [34]: 34.71 s; Activity [35]: 57.43 s; Activity [36]: 55.29 s; Activity [37]: 71.29 s; Activity [38]: 65.43 s; inhibition in vivo at 30 mg/kg [39]: 25%; Activity [40]: Non-toxic |
